The source of these data is patent US7189691B2, “Methods and compositions for treating leukemia” (The Administrators of the Tulane Educational Fund, priority 2004, dated 2007).

In one test the target is T1, AF4-AF9 interaction (Homo sapiens, UniProt P42568).
T1 construct: made in house; host or cells: GST-AF4 from E. coli; AF9 by coupled in vitro transcription/translation (Promega)
T1 sequence (P42568 211-568): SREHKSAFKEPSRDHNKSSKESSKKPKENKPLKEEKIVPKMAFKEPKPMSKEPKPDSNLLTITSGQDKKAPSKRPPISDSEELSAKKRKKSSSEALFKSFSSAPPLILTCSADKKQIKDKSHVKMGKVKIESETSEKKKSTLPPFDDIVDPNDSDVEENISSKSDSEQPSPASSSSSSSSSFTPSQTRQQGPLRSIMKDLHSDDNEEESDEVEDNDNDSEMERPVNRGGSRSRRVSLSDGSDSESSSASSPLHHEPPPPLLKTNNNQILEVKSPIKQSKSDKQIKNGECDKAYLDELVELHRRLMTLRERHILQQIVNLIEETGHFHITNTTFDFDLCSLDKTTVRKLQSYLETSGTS
Nature of the test: Enzyme-linked protein binding assay, GST-AF4(749-775) and biotinylated AF9. The settings on record: peptide 20 μg/ml; FIG. 2A. Here is the method: Next, an enzyme-linked protein binding assay was developed as a potential high throughput tool to semi-quantitatively assess the ability of various compounds to disrupt the AF4-AF9 interaction in vitro (FIGS. 2A and 2B).
GST-AF4 (749–775) SEQ ID NO: 107 was bound to glutathione-coated 96-well plates and incubated with biotinylated AF9 in conjunction with 20 μg/ml of the following peptides: • (a) Pen-[…], a fusion protein of PENETRATIN™ transporter peptide to the amino terminus of […](SEQ ID NO: 110, PFmut), • (b) Pen-[…], a fusion protein of the transporter protein PENETRATIN™ to the amino terminus of […](SEQ ID NO: 2; or PFWT), • (c) […] or […](SEQ ID NO: 111); • (d) […] or […] (SEQ ID NO: 112); • (e) […] or […](SEQ ID NO: 113), or with • (f) DMSO, or • (g) GST-Cx, a control.
The plate was washed and the retention of AF9 was determined by a colorimetric assay using streptavidin-alkaline phosphatase and pNPP as a substrate. […] At this same peptide concentration, PFmut (a) in col. […] The 10 amino acid peptide (d) in col. 6 is the smallest molecule found to have activity in vitro.

In test [1] the target is T2, AF4-AF9 protein complexes (Homo sapiens, UniProt P42568).
T2 construct: expressed in transfected cells; host or cells: NIH-3T3
T2 sequence (P42568 1-568): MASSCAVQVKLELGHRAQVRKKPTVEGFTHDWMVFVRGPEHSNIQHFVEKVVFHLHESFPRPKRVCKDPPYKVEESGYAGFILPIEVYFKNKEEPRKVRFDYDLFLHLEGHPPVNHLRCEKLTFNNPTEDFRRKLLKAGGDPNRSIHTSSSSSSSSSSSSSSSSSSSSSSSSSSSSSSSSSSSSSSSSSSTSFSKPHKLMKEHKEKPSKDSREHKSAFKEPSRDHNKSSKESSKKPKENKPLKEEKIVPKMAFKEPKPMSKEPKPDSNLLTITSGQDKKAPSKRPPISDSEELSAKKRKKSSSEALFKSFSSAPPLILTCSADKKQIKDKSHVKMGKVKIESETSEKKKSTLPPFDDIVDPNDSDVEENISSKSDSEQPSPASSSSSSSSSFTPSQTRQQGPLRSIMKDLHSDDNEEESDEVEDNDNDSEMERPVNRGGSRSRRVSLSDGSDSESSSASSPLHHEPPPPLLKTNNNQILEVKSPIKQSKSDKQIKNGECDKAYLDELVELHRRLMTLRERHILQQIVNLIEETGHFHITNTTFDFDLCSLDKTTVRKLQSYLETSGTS
Briefly: Co-localization of GFP-AF4R1 3A- and RFP-AF9 in transfected NIH-3T3 cells. In kind it is cell-based, mouse. As to conditions: overnight. Here is the method:
To determine whether PFWT disrupts AF4-AF9 protein complexes in living cells, the properties of a fragment of mouse AF4 protein encompassing amino acids 623–811 (SEQ ID NO: 115) was used. The entire murine AF4 sequence can be obtained from the NCBI database at Accession Number AAD08668.
To test whether disruption of the AF4-AF9 interaction by PFWT results in delocalization of AF4R1 3A- from the nucleus to the cytoplasm even when co-expressed with exogenous AF9, the following assay was performed.
An enhanced green fluorescent protein (GFP) expression vector encoding mouse AF4 amino acids 623–811 SEQ ID NO: 115 (pEGFP-AF4R1 3A-), and a red fluorescent protein (RFP)-tagged AF9 expression vector were produced as described (Erfurth, F., et al., 2004, cited above; Srinivasan 2003, cited above; Hemenway, C. S., et al., 2001, cited above). NIH-3T3 cells were grown in chamber slides containing DMEM supplemented with 1-glutamine, 1% non-essential amino acids, 1% sodium pyruvate, 10% calf serum, and antibiotics. Cells were then transiently transfected with the expression vectors expressing fluorescent protein-tagged AF4 and AF9 using Lipofectamine™ 2000 reagent (Invitrogen). After 24 h the cells were treated with the peptides PFWT or PFmut at a concentration of 25 or 50 μg/ml and incubated overnight.
Cells on chamber slides were washed in PBS, fixed with 3% paraformaldehyde for 15 minutes, treated with 300 nM 4′,6-Diamidino-2-phenyindole (DAPI) nuclear counterstain for 5 minutes, and mounted with coverslips using Prolong™ media (Molecular Probes). Slides were visualized by deconvolution fluorescence microscopy with a Leica DMRXA upright microscope (Meyer Instruments) equipped with a Sensicam™ QE CCD digital camera (Cooke Corporation) and filter sets for both EGFP (exciter HQ480/20, dichroic Q495LP, and emitter HQ510/20m) and RFP (exciter 560/55x, dichroic Q595LP, and emitter HQ645/75m). Images were captured, deconvolved, and analyzed with Slidebook™ software (Intelligent Imaging Innovations).
Image analysis entailed a pixel correlation algorithm between the EGFP and RFP fluorescence channels within each image through creation of a digital binary overlay (thresholding) over arbitrary regions in both channels. This statistical measurement determines the degree in which two pixels in an image correspond to one another. If the trend in number of pixels in both EGFP and RFP channels overlap or co-localize entirely (i.e., perfect pixel set correlation), they have an assigned correlation measurement of 1.0.

In the case of `CC[C@H](C)[C@H](NC(=O)[C@H](CCC(N)=O)NC(=O)[C@@H](N)CCCNC(=N)N)C(=O)N[C@@H](CCCCN)C(=O)N[C@@H](Cc1c[nH]c2ccccc12)C(=O)N[C@@H](Cc1ccccc1)C(=O)N[C@@H](CCC(N)=O)C(=O)N[C@@H](CC(N)=O)C(=O)N[C@@H](CCCNC(=N)N)C(=O)N[C@@H](CCCNC(=N)N)C(=O)N[C@@H](CCSC)C(=O)N[C@@H](CCCCN)C(=O)N[C@@H](Cc1c[nH]c2ccccc12)C(=O)N[C@@H](CCCCN)C(=O)N[C@@H](CCCCN)C(=O)N[C@@H](CC(C)C)C(=O)N[C@@H](Cc1c[nH]c2ccccc12)C(=O)N[C@@H](CCC(=O)O)C(=O)N[C@@H](CCCCN)C(=O)N[C@@H](CO)C(=O)N[C@@H](CC(=O)O)C(=O)N[C@@H](CC(C)C)C(=O)N[C@@H](CC(=O)O)C(=O)N[C@@H](CC(C)C)C(=O)N[C@@H](CC(C)C)C(=O)N[C@@H](CO)C(=O)N[C@@H](CCCNC(=N)N)C(=O)N[C@H](C(=O)N1CCC[C@H]1C(=O)O)C(C)C` [PFmut], the “AF9 binding to GST-AF4 (retention of AF9)” value at AF4-AF9 interaction is given as “interferes with AF9 binding, but a significant amount of AF9 remains bound in the well”. In test [1] (25 μg/ml), the “localization of GFP-AF4R1 3A- relative to RFP-AF9” value is “no observable effect”; the “pixel correlation between EGFP and RFP channels” value is “significantly positively correlated”. In test [1] (50 μg/ml), the “localization of GFP-AF4R1 3A- relative to RFP-AF9” value is recorded as “displaces some GFP-AF4R1 3A- from RFP-AF9 into the cytoplasm”; the “pixel correlation between EGFP and RFP channels” value is “strongly positively correlated”.
On the same counts, the results for `CC[C@H](C)[C@H](NC(=O)[C@H](CCCCN)NC(=O)[C@@H](NC(=O)[C@H](Cc1c[nH]c2ccccc12)NC(=O)[C@H](CC(C)C)NC(=O)[C@H](CCCCN)NC(=O)[C@H](CCCCN)NC(=O)[C@H](Cc1c[nH]c2ccccc12)NC(=O)[C@H](CCCCN)NC(=O)[C@H](CCSC)NC(=O)[C@H](CCCNC(=N)N)NC(=O)[C@H](CCCNC(=N)N)NC(=O)[C@H](CC(N)=O)NC(=O)[C@H](CCC(N)=O)NC(=O)[C@H](Cc1ccccc1)NC(=O)[C@H](Cc1c[nH]c2ccccc12)NC(=O)[C@H](CCCCN)NC(=O)[C@@H](NC(=O)[C@H](CCC(N)=O)NC(=O)[C@@H](N)CCCNC(=N)N)[C@@H](C)CC)C(C)C)C(=O)N[C@@H](CC(=O)O)C(=O)N[C@@H](CC(C)C)C(=O)N[C@@H](CC(=O)O)C(=O)N[C@@H](CC(C)C)C(=O)N[C@@H](CC(C)C)C(=O)N[C@@H](CO)C(=O)N[C@@H](CCCNC(=N)N)C(=O)N[C@H](C(=O)N1CCC[C@H]1C(=O)O)C(C)C` [PFWT] are “almost completely block AF9 binding”, “partially delocalizes or is displaced from RFP-AF9”, “negative correlation value”, “little or no GFP-AF4R1 3A- remains in the nucleus” and “negatively correlated”.
